Data published in patent publication US20130217085A1, “METHODS FOR IMPROVING FERMENTATION YIELD OF POLYUNSATURATED FATTY ACIDS” (NANJING UNIVERSITY OF TECHNOLOGY, priority 2010, published 2013).

Test system: Schizochytrium limacinum HX-308
Assay: Shake-flask fermentation of Schizochytrium limacinum HX-308 with exogenous compatible solute added to the fermentation medium (fatty acid composition, DHA yield, biomass)
Assay type: cell-based
Details: for increase of DHA yield: versus no addition
Text: The detection method of the following Examples is the same as that in the application titled “Schizochytrium limacinum and method of production of DHA oil using the same” (Application No. 200910033869.5) The strain is Schizochytrium limacinum HX-308 with deposit number CCTCC No. M209059. Seed medium: D-glucose 40 g/L, yeast extract 2 g/L, sodium glutamate 10 g/L, MgCl2 3 g/L, CaCl2·2H2O 1 g/L, KH2PO4 4 g/L, KCl 2 g/L, NaCl 15 g/L, MgSO4·7H2O 5 g/L, FeCl3 0.1 g/L. (See “A Schizochytrium limacinum and method of production of DHA oil using the same” (Application No. 200910033869.5)). Fermentation medium: D-glucose 40 g/L, yeast extract 2 g/L, sodium glutamate 10 g/L, MgCl2 3 g/L, (NH4)2SO4 6 g/L, KH2PO4 4 g/L, KCl 2 g/L, NaCl 15 g/L, MgSO4·7H2O 5 g/L, FeCl3 0.1 g/L. (See “A Schizochytrium limacinum and method of production of DHA oil using the same” (Application No. 200910033869.5)). Cultural method: strain was inoculated into seed medium with inoculation amount of 5% (v/v), cultured in a 500 mL shake flask for 24 h to log phase under 170 r at 25° C., and inoculated into the fermentation medium with addition of a certain amount of glycine betaine (such as 10 mmol/L, 40 mmol/L, 70 mmol/L, 100 mmol/L) in inoculation amount of 9% (v/v) for culturing; fermentation ceased when glucose reached an amount of 0 g/L. The results are shown in Table 1. The strain is Schizochytrium limacinum HX-308 with deposit number CCTCC No. M209059. Seed medium: D-glucose 40 g/L, yeast extract 2 g/L, sodium glutamate 10 g/L, MgCl2 3 g/L, CaCl2·2H2O 1 g/L, KH2PO4 4 g/L, KCl 2 g/L, NaCl 15 g/L, MgSO4·7H2O 5 g/L, FeCl3 0.1 g/L. Fermentation medium: D-glucose 40 g/L, yeast extract 2 g/L, sodium glutamate 10 g/L, MgCl2 3 g/L, (NH4)2SO4 6 g/L, KH2PO4 4 g/L, KCl 2 g/L, NaCl 15 g/L, MgSO4·7H2O 5 g/L, FeCl3 0.1 g/L. Cultural method: the strain was inoculated into seed medium with inoculation amount of 5% (v/v), cultured in a 500 mL shake flask for 24 h to log phase under 170 r at 25° C., and inoculated into the fermentation medium with addition of a certain amount of trehalose (such as 10 mmol/L, 40 mmol/L, 80 mmol/L) in inoculation amount of 9% (v/v); fermentation ceased when glucose reached an amount of 0 g/L. The results are shown in Table 2.

[1] = exogenous glycine betaine 10 mM
[2] = exogenous glycine betaine 40 mM
[3] = exogenous glycine betaine 70 mM
[4] = exogenous glycine betaine 100 mM
[5] = exogenous glycine betaine 200 mM

C[N+](C)(C)CC(=O)[O-] [glycine betaine]
mass percentage of squalene (after treatment with exogenous glycine betaine, concentration not given, increased from 0.8%): 1.7%
DHA yield (after treatment with exogenous glycine betaine, concentration not given, increased from 3.9 g/L): 5.0 g/L
Total fatty acid yield (after treatment with exogenous glycine betaine, concentration not given, increased from 8.8 g/L): 10 g/L
mass percentage of DPA in total fatty acids (after treatment with exogenous glycine betaine, concentration not given, increased from 11.9%): 16.2%
mass percentage of DHA in total fatty acids (after treatment with exogenous glycine betaine, concentration not given, increased from 44.1%): 49.8%
ratio of DHA in the total biomass (after treatment with exogenous glycine betaine, concentration not given, increased from 57): 72 mg/g
mass percentage of saturated fatty acid C14: 0 in total fatty acid (after treatment with exogenous glycine betaine, concentration not given, reduced from 10.0%): 5.1%
mass percentage of saturated fatty acid C16: 0 in total fatty acid (after treatment with exogenous glycine betaine, concentration not given, reduced from 24.4%): 20%
increase of DHA yield (after treatment with exogenous glycine betaine): 28%
ARA (% total fatty acids) [1]: 0.5 % total fatty acids
Biomass [1]: 69 g/L
C14:0 (% total fatty acids) [1]: 7.1 % total fatty acids
C16:0 (% total fatty acids) [1]: 21.5 % total fatty acids
DHA (% total fatty acids) [1]: 47.8 % total fatty acids
DHA (mg/g biomass) [1]: 60.5 mg/g biomass
DHA yield [1]: 4.2 g/L
DPA (% total fatty acids) [1]: 14.5 % total fatty acids
EPA (% total fatty acids) [1]: 1.2 % total fatty acids
Others (% total fatty acids) [1]: 6.2 % total fatty acids
Squalene (% total fatty acids) [1]: 1.2 % total fatty acids
Total fatty acid yield [1]: 8.8 g/L
ARA (% total fatty acids) [2]: 0.6 % total fatty acids
Biomass [2]: 69 g/L
C14:0 (% total fatty acids) [2]: 5.1 % total fatty acids
C16:0 (% total fatty acids) [2]: 19.9 % total fatty acids
DHA (% total fatty acids) [2]: 49.8 % total fatty acids
DHA (mg/g biomass) [2]: 72.2 mg/g biomass
DHA yield [2]: 5 g/L
DPA (% total fatty acids) [2]: 16.2 % total fatty acids
EPA (% total fatty acids) [2]: 1.6 % total fatty acids
Others (% total fatty acids) [2]: 5.1 % total fatty acids
Squalene (% total fatty acids) [2]: 1.7 % total fatty acids
Total fatty acid yield [2]: 10 g/L
ARA (% total fatty acids) [3]: 0.8 % total fatty acids
Biomass [3]: 70 g/L
C14:0 (% total fatty acids) [3]: 5.1 % total fatty acids
C16:0 (% total fatty acids) [3]: 19.5 % total fatty acids
DHA (% total fatty acids) [3]: 49.0 % total fatty acids
DHA (mg/g biomass) [3]: 67.1 mg/g biomass
DHA yield [3]: 4.7 g/L
DPA (% total fatty acids) [3]: 16.0 % total fatty acids
EPA (% total fatty acids) [3]: 2.0 % total fatty acids
Others (% total fatty acids) [3]: 5.6 % total fatty acids
Squalene (% total fatty acids) [3]: 2.0 % total fatty acids
Total fatty acid yield [3]: 9.6 g/L
ARA (% total fatty acids) [4]: 0.9 % total fatty acids
Biomass [4]: 70 g/L
C14:0 (% total fatty acids) [4]: 5.2 % total fatty acids
C16:0 (% total fatty acids) [4]: 19.0 % total fatty acids
DHA (% total fatty acids) [4]: 48.1 % total fatty acids
DHA (mg/g biomass) [4]: 61.14 mg/g biomass
DHA yield [4]: 4.3 g/L
DPA (% total fatty acids) [4]: 15.8 % total fatty acids
EPA (% total fatty acids) [4]: 2.6 % total fatty acids
Others (% total fatty acids) [4]: 6.1 % total fatty acids
Squalene (% total fatty acids) [4]: 2.3 % total fatty acids
Total fatty acid yield [4]: 8.9 g/L
Biomass [5]: 85 g/L
C14:0 (% total fatty acids) [5]: 2.3 % total fatty acids
C16:0 (% total fatty acids) [5]: 10.9 % total fatty acids
DHA (% total fatty acids) [5]: 34.9 % total fatty acids
DHA (mg/g biomass) [5]: 27 mg/g biomass
DHA yield [5]: 2.3 g/L
DPA (% total fatty acids) [5]: 10.5 % total fatty acids
EPA (% total fatty acids) [5]: 8.6 % total fatty acids
Others (% total fatty acids) [5]: 30.9 % total fatty acids
Squalene (% total fatty acids) [5]: 1.9 % total fatty acids
Total fatty acid yield [5]: 6.6 g/L

OC[C@H]1O[C@H](O[C@H]2O[C@H](CO)[C@@H](O)[C@H](O)[C@H]2O)[C@H](O)[C@@H](O)[C@@H]1O [trehalose]
increase of DHA yield (appropriate amount of trehalose): 92%
DHA yield (appropriate amount of trehalose, increased from 3.9 g/L): 7.5 g/L
yield of total fatty acids (appropriate amount of trehalose, increased from 8.8 g/L): 16.7 g/L
ratio of DHA in total biomass (appropriate amount of trehalose, increased from 57): 99 mg/g
Biomass (appropriate amount of trehalose, increased from 60 g/L): 76 g/L
ARA (% total fatty acids) (exogenous trehalose 10 mM): 0.6 % total fatty acids
Biomass (exogenous trehalose 10 mM): 70 g/L
C14:0 (% total fatty acids) (exogenous trehalose 10 mM): 9.5 % total fatty acids
C16:0 (% total fatty acids) (exogenous trehalose 10 mM): 22.3 % total fatty acids
DHA (% total fatty acids) (exogenous trehalose 10 mM): 44.8 % total fatty acids
DHA (mg/g biomass) (exogenous trehalose 10 mM): 57.1 mg/g biomass
DHA yield (exogenous trehalose 10 mM): 4 g/L
DPA (% total fatty acids) (exogenous trehalose 10 mM): 12.3 % total fatty acids
EPA (% total fatty acids) (exogenous trehalose 10 mM): 1.6 % total fatty acids
Others (% total fatty acids) (exogenous trehalose 10 mM): 8.1 % total fatty acids
Squalene (% total fatty acids) (exogenous trehalose 10 mM): 0.8 % total fatty acids
Total fatty acid yield (exogenous trehalose 10 mM): 8.9 g/L
ARA (% total fatty acids) (exogenous trehalose 40 mM): 1.9 % total fatty acids
Biomass (exogenous trehalose 40 mM): 74 g/L
C14:0 (% total fatty acids) (exogenous trehalose 40 mM): 9.6 % total fatty acids
C16:0 (% total fatty acids) (exogenous trehalose 40 mM): 21.3 % total fatty acids
DHA (% total fatty acids) (exogenous trehalose 40 mM): 47.4 % total fatty acids
DHA (mg/g biomass) (exogenous trehalose 40 mM): 56.6 mg/g biomass
DHA yield (exogenous trehalose 40 mM): 4.2 g/L
DPA (% total fatty acids) (exogenous trehalose 40 mM): 12.6 % total fatty acids
EPA (% total fatty acids) (exogenous trehalose 40 mM): 1.8 % total fatty acids
Others (% total fatty acids) (exogenous trehalose 40 mM): 4.5 % total fatty acids
Squalene (% total fatty acids) (exogenous trehalose 40 mM): 0.9 % total fatty acids
Total fatty acid yield (exogenous trehalose 40 mM): 8.9 g/L
ARA (% total fatty acids) (exogenous trehalose 80 mM): 1.2 % total fatty acids
Biomass (exogenous trehalose 80 mM): 76 g/L
C14:0 (% total fatty acids) (exogenous trehalose 80 mM): 10.7 % total fatty acids
C16:0 (% total fatty acids) (exogenous trehalose 80 mM): 23.2 % total fatty acids
DHA (% total fatty acids) (exogenous trehalose 80 mM): 45 % total fatty acids
DHA (mg/g biomass) (exogenous trehalose 80 mM): 99.3 mg/g biomass
DHA yield (exogenous trehalose 80 mM): 7.5 g/L
DPA (% total fatty acids) (exogenous trehalose 80 mM): 12.2 % total fatty acids
EPA (% total fatty acids) (exogenous trehalose 80 mM): 1.3 % total fatty acids
Others (% total fatty acids) (exogenous trehalose 80 mM): 5.5 % total fatty acids
Squalene (% total fatty acids) (exogenous trehalose 80 mM): 0.9 % total fatty acids
Total fatty acid yield (exogenous trehalose 80 mM): 16.7 g/L
ARA (% total fatty acids) (exogenous trehalose 160 mM): 1.0 % total fatty acids
Biomass (exogenous trehalose 160 mM): 78 g/L
C14:0 (% total fatty acids) (exogenous trehalose 160 mM): 11.0 % total fatty acids
C16:0 (% total fatty acids) (exogenous trehalose 160 mM): 22.5 % total fatty acids
DHA (% total fatty acids) (exogenous trehalose 160 mM): 43.2 % total fatty acids
DHA (mg/g biomass) (exogenous trehalose 160 mM): 89.7 mg/g biomass
DHA yield (exogenous trehalose 160 mM): 7 g/L
DPA (% total fatty acids) (exogenous trehalose 160 mM): 12.1 % total fatty acids
EPA (% total fatty acids) (exogenous trehalose 160 mM): 1.4 % total fatty acids
Others (% total fatty acids) (exogenous trehalose 160 mM): 8.3 % total fatty acids
Squalene (% total fatty acids) (exogenous trehalose 160 mM): 0.5 % total fatty acids
Total fatty acid yield (exogenous trehalose 160 mM): 16.2 g/L
Biomass (exogenous trehalose 200 mM): 81 g/L
C14:0 (% total fatty acids) (exogenous trehalose 200 mM): 11.7 % total fatty acids
C16:0 (% total fatty acids) (exogenous trehalose 200 mM): 21.5 % total fatty acids
DHA (% total fatty acids) (exogenous trehalose 200 mM): 41.7 % total fatty acids
DHA (mg/g biomass) (exogenous trehalose 200 mM): 78 mg/g biomass
DHA yield (exogenous trehalose 200 mM): 6.3 g/L
DPA (% total fatty acids) (exogenous trehalose 200 mM): 11.5 % total fatty acids
EPA (% total fatty acids) (exogenous trehalose 200 mM): 1.4 % total fatty acids
Others (% total fatty acids) (exogenous trehalose 200 mM): 12.2 % total fatty acids
Total fatty acid yield (exogenous trehalose 200 mM): 15.1 g/L
ARA (% total fatty acids) (exogenous trehalose 280 mM): 1.0 % total fatty acids
Biomass (exogenous trehalose 280 mM): 76 g/L
C14:0 (% total fatty acids) (exogenous trehalose 280 mM): 11.1 % total fatty acids
C16:0 (% total fatty acids) (exogenous trehalose 280 mM): 22.7 % total fatty acids
DHA (% total fatty acids) (exogenous trehalose 280 mM): 39.1 % total fatty acids
DHA (mg/g biomass) (exogenous trehalose 280 mM): 29 mg/g biomass
DHA yield (exogenous trehalose 280 mM): 2.2 g/L
DPA (% total fatty acids) (exogenous trehalose 280 mM): 10.8 % total fatty acids
EPA (% total fatty acids) (exogenous trehalose 280 mM): 7.7 % total fatty acids
Others (% total fatty acids) (exogenous trehalose 280 mM): 7.6 % total fatty acids
Total fatty acid yield (exogenous trehalose 280 mM): 5.6 g/L
